For test [1], the target named is T1, A2BR (Homo sapiens, UniProt P29275, Y10F).
T1 sequence (P29275 1-332 Y10F): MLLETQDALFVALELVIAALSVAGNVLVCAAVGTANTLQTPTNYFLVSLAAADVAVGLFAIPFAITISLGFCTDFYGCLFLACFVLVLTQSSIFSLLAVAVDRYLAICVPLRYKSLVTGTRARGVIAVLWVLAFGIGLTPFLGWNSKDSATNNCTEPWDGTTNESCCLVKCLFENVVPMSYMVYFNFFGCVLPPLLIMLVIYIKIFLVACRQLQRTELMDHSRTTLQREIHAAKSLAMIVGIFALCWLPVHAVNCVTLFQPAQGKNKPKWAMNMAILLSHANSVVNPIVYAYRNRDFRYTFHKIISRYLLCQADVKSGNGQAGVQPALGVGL
Kind of test: GloSensor cAMP assay, HEK293. Format: cell-based. (Changes in cAMP serve as a functional read-out for many G protein-coupled receptors.)

For test [2], the target named is T2, A2BR (Homo sapiens, UniProt P29275).
T2 sequence (P29275 1-332): T1 sequence (P29275 1-332 Y10F) with F10Y
Kind of test: GloSensor cAMP assay, HEK293. Type of test: cell-based.

Test [3] addresses T3, A2BR (Homo sapiens, UniProt P29275, N273Y).
T3 sequence (P29275 1-332 N273Y): T1 sequence (P29275 1-332 Y10F) with F10Y, N273Y
Kind of test: GloSensor cAMP assay, HEK293. Type of test: cell-based.

The target of test [4] is A2AR (Homo sapiens, UniProt P29274, Y9F). Kind of test: cell-based.
Chain of A2AR (Homo sapiens, UniProt P29274, Y9F) (P29274 whole entry Y9F): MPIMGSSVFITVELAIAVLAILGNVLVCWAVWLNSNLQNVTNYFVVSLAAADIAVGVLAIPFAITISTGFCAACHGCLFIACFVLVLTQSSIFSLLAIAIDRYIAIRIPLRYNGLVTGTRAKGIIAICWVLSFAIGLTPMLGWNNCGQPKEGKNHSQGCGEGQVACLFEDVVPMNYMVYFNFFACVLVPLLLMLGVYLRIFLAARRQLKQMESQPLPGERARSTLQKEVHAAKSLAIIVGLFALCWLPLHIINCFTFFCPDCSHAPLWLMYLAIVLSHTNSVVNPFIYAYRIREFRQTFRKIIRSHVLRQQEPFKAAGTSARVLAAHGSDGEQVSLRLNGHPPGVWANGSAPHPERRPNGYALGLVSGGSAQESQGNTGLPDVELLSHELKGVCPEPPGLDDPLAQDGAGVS
The target in test [5] is A2AR (Homo sapiens, UniProt P29274). Kind of test: cell-based.
Chain of A2AR (Homo sapiens, UniProt P29274) (P29274 whole entry): as the sequence (P29274 whole entry Y9F) above, with F9Y counted along it
The target of test [6] is A2AR (Homo sapiens, UniProt P29274, Y271N). Kind of test: cell-based.
Chain of A2AR (Homo sapiens, UniProt P29274, Y271N) (P29274 whole entry Y271N): as the sequence (P29274 whole entry Y9F) above, with F9Y, Y271N counted along it

Substitutions are numbered along the chain they refer to.

What is called IC50 is the concentration at which inhibition is half-maximal. A higher IC50 goes with lower potency. Turning to `Cc1c(C#N)cccc1-c1cc(-c2ccn(Cc3cccc(C(C)(C)O)n3)c(=O)c2)nc(N)n1` [2-118, 3-[2-amino-6-[1-[[6-(2-hydroxypropan-2-yl)pyridin-2-yl]methyl]-2-oxo-1,2-dihydropyridin-4-yl]pyrimidin-4-yl]-2-methylbenzonitrile], the values for the IC50 against A2BR [1], at A2BR [2] and at A2BR [3] were 441 nM, 2630 nM and 1210 nM, respectively.
As to `Cc1c(C#N)cccc1-c1cc(-c2cn(Cc3cccc(C(C)(C)O)n3)nn2)nc(N)n1` [AB928, 3-[2-amino-6-[1-[[6-(2-hydroxypropan-2-yl)pyridin-2-yl]methyl]triazol-4-yl]pyrimidin-4-yl]-2-methylbenzonitrile], the IC50 against A2AR [4] worked out at 1.78 nM; on A2BR [1], 1.29 nM; against A2AR [5] it was 3.21 nM; on A2BR [2], 8.18 nM; on A2BR [3] it was 7.46 nM; against A2AR [6] it was 65.6 nM.
